Measured values published in ChEMBL document CHEMBL4699602, “Stapled and Xenopus Glucagon-Like Peptide 1 (GLP-1)-Based Dual GLP-1/Gastrin Receptor Agonists with Improved Metabolic Benefits in Rodent Models of Obesity and Diabetes” (J Med Chem, 2020).
*1 amine or outer side, *2 acyl side, *3 side chain or, on linkers, in order; H or OH if unused. Where a SMILES comes first, the peptide text is derived from it. Bridges are numbered along the chain shown (N, C = ends). [ ]: non-standard residue; d: D form. X2 = O=C(O)CCCCCCCCCCCCCCCCC(=O)NC(CCC(=O)NCCOCCOCC(=O)NCCCCCCNC(=O)C(CCCCNC(=O)CCN1C(=O)CC([*:2])C1=O)NC(=O)CCN1C(=O)CC([*:1])C1=O)C(=O)O; X8 = O=C(O)CCCCCCCCCCCCCCCCC(=O)NCCOCCOCC(=O)NCCCCCCNC(=O)C(CCCCNC(=O)CCN1C(=O)CC([*:2])C1=O)NC(=O)CCN1C(=O)CC([*:1])C1=O; X6 = CCCCCCCCCCCCCCCC(=O)NCCCCCCNC(=O)C(CCCCNC(=O)CCN1C(=O)CC([*:2])C1=O)NC(=O)CCN1C(=O)CC([*:1])C1=O; Aib = CC(C)(N)C(=O)O

Key:
[1] = target: T1, Glucagon-like peptide 1 receptor (Homo sapiens, UniProt P43220); assay: Agonist activity at human GLP-1R expressed in HEK293 cells assessed as stimulation of cAMP accumulation incubated for 20 mins in presence of 4.4% HSA; type: functional, cell-based
T1 sequence (P43220 whole entry): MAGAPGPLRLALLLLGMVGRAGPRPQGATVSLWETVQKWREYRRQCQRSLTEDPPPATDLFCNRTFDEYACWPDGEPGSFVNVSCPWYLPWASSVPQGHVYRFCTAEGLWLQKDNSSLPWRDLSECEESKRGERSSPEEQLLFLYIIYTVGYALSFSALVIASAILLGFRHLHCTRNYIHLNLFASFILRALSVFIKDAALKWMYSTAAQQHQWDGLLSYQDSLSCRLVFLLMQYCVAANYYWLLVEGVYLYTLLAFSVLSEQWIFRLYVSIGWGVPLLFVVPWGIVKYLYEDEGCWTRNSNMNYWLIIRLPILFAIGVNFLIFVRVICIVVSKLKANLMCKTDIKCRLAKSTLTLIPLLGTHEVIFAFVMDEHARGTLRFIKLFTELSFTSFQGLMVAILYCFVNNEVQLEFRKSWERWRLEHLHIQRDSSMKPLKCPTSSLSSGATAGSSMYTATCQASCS

[2] = target: T1, Glucagon-like peptide 1 receptor; assay: Ratio of EC50 for agonist activity at human GLP-1R expressed in HEK293 cells in presence of 4.4% HSA to EC50 for agonist activity at human GLP-1R expressed in HEK293 cells in presence of 0% HSA; type: cell-based
[3] = target: T1, Glucagon-like peptide 1 receptor; assay: Agonist activity at human GLP-1R expressed in HEK293 cells assessed as stimulation of cAMP accumulation incubated for 20 mins in presence of 0% HSA; type: functional, cell-based

Compound	EC50 [1] [nM]	Ratio EC50 [2]	EC50 [3] [nM]
CC[C@H](C)[C@H](NC(=O)[C@H](CC(C)C)NC(=O)[C@H](Cc1c[nH]c2ccccc12)NC(=O)[C@H](CCC(=O)O)NC(=O)[C@@H](NC(=O)[C@H](Cc1ccccc1)NC(=O)[C@@H]1CSC2CC(=O)N(CCC(=O)NC(C(=O)NCCCCCCNC(=O)COCCOCCNC(=O)CCC(NC(=O)CCCCCCCCCCCCCCCCC(=O)O)C(=O)O)CCCCNC(=O)CCN3C(=O)CC(SC[C@H](NC(=O)[C@H](Cc4ccc(O)cc4)NC(=O)[C@H](CCC(=O)O)NC(=O)[C@@H](NC(=O)[C@@H](NC(=O)[C@H](CC(=O)O)NC(=O)[C@H](CC(N)=O)NC(=O)[C@@H](NC(=O)[C@H](Cc4ccc(O)cc4)NC(=O)[C@@H](NC(=O)CNC(=O)[C@H](CCC(=O)O)NC(=O)C(C)(C)NC(=O)[C@@H](N)Cc4c[nH]cn4)[C@@H](C)O)[C@@H](C)O)C(C)C)[C@@H](C)O)C(=O)N[C@@H](CCC(=O)O)C(=O)N[C@@H](CCC(=O)O)C(=O)N[C@@H](CCC(=O)O)C(=O)N[C@@H](C)C(=O)N[C@@H](C)C(=O)N[C@@H](CCCCN)C(=O)N1)C3=O)C2=O)[C@@H](C)CC)C(=O)N[C@@H](CCCCN)C(=O)NCC(=O)N[C@@H](CCCCN)C(=O)N1CCC[C@H]1C(=O)N[C@@H](CO)C(=O)N[C@@H](CO)C(=O)NCC(=O)N[C@@H](C)C(=O)N1CCC[C@H]1C(=O)N1CCC[C@H]1C(=O)N1CCC[C@H]1C(=O)N[C@@H](CO)C(N)=O (some centres undefined) (HELM PEPTIDE1{H.[Aib].E.G.T.Y.T.N.D.V.T.E.Y.C.E.E.E.A.A.K.C.F.I.E.W.L.I.K.G.K.P.S.S.G.A.P.P.P.S.[am]}|CHEM1{[O=C(O)CCCCCCCCCCCCCCCCC(=O)NC(CCC(=O)NCCOCCOCC(=O)NCCCCCCNC(=O)C(CCCCNC(=O)CCN1C(=O)CC([*:1])C1=O)NC(=O)CCN1C(=O)CC([*:2])C1=O)C(=O)O]}$PEPTIDE1,CHEM1,14:R3-1:R1|PEPTIDE1,CHEM1,21:R3-1:R2$$$V2.0)	5.9	59	0.1
CC[C@H](C)[C@H](NC(=O)[C@H](CC(C)C)NC(=O)[C@H](Cc1c[nH]c2ccccc12)NC(=O)[C@H](CCC(=O)O)NC(=O)[C@@H](NC(=O)[C@H](Cc1ccccc1)NC(=O)[C@@H]1CSC2CC(=O)N(CCC(=O)NC(C(=O)NCCCCCCNC(=O)COCCOCCNC(=O)CCCCCCCCCCCCCCCCC(=O)O)CCCCNC(=O)CCN3C(=O)CC(SC[C@H](NC(=O)[C@H](Cc4ccc(O)cc4)NC(=O)[C@H](CCC(=O)O)NC(=O)[C@@H](NC(=O)[C@@H](NC(=O)[C@H](CC(=O)O)NC(=O)[C@H](CC(N)=O)NC(=O)[C@@H](NC(=O)[C@H](Cc4ccc(O)cc4)NC(=O)[C@@H](NC(=O)CNC(=O)[C@H](CCC(=O)O)NC(=O)C(C)(C)NC(=O)[C@@H](N)Cc4c[nH]cn4)[C@@H](C)O)[C@@H](C)O)C(C)C)[C@@H](C)O)C(=O)N[C@@H](CCC(=O)O)C(=O)N[C@@H](CCC(=O)O)C(=O)N[C@@H](CCC(=O)O)C(=O)N[C@@H](C)C(=O)N[C@@H](C)C(=O)N[C@@H](CCCCN)C(=O)N1)C3=O)C2=O)[C@@H](C)CC)C(=O)N[C@@H](CCCCN)C(=O)NCC(=O)N[C@@H](CCCCN)C(=O)N1CCC[C@H]1C(=O)N[C@@H](CO)C(=O)N[C@@H](CO)C(=O)NCC(=O)N[C@@H](C)C(=O)N1CCC[C@H]1C(=O)N1CCC[C@H]1C(=O)N1CCC[C@H]1C(=O)N[C@@H](CO)C(N)=O (some centres undefined) (HELM PEPTIDE1{H.[Aib].E.G.T.Y.T.N.D.V.T.E.Y.C.E.E.E.A.A.K.C.F.I.E.W.L.I.K.G.K.P.S.S.G.A.P.P.P.S.[am]}|CHEM1{[O=C(O)CCCCCCCCCCCCCCCCC(=O)NCCOCCOCC(=O)NCCCCCCNC(=O)C(CCCCNC(=O)CCN1C(=O)CC([*:1])C1=O)NC(=O)CCN1C(=O)CC([*:2])C1=O]}$PEPTIDE1,CHEM1,14:R3-1:R1|PEPTIDE1,CHEM1,21:R3-1:R2$$$V2.0)	1.3	11.8	0.11
H-H[Aib]EGTYTNDVTEYLEEEAAKCFIEWLICGKPSSGAPPSKKKKKK-NH2 (linker 21-28 via X8)	1.5	12.5	0.12
H-H[Aib]EGTYTNDVTEYLEEEAAKCFIEWLICGKPSSGAPPSKKKKKK-NH2 (linker 21-28 via X2)	6.9	38.3	0.18
CCCCCCCCCCCCCCCC(=O)NCCCCCCNC(=O)C1CCCCNC(=O)CCN2C(=O)CC(SC[C@@H](C(=O)NCC(=O)N[C@@H](CCCCN)C(N)=O)NC(=O)[C@H]([C@@H](C)CC)NC(=O)[C@H](CC(C)C)NC(=O)[C@H](Cc3c[nH]c4ccccc34)NC(=O)[C@H](CCC(=O)O)NC(=O)[C@H]([C@@H](C)CC)NC(=O)[C@H](Cc3ccccc3)NC(=O)[C@@H](NC(=O)[C@H](CCCCN)NC(=O)[C@H](C)NC(=O)[C@H](C)NC(=O)[C@H](CCC(=O)O)NC(=O)[C@H](CCC(=O)O)NC(=O)[C@H](CCC(=O)O)NC(=O)[C@H](CC(C)C)NC(=O)[C@H](Cc3ccc(O)cc3)NC(=O)[C@H](CCC(=O)O)NC(=O)[C@@H](NC(=O)[C@@H](NC(=O)[C@H](CC(=O)O)NC(=O)[C@H](CC(N)=O)NC(=O)[C@@H](NC(=O)[C@H](Cc3ccc(O)cc3)NC(=O)[C@@H](NC(=O)CNC(=O)[C@H](CCC(=O)O)NC(=O)C(C)(C)NC(=O)[C@@H](N)Cc3c[nH]cn3)[C@@H](C)O)[C@@H](C)O)C(C)C)[C@@H](C)O)CSC3CC(=O)N(CCC(=O)N1)C3=O)C2=O (some centres undefined) (HELM PEPTIDE1{H.[Aib].E.G.T.Y.T.N.D.V.T.E.Y.L.E.E.E.A.A.K.C.F.I.E.W.L.I.C.G.K.[am]}|CHEM1{[CCCCCCCCCCCCCCCC(=O)NCCCCCCNC(=O)C(CCCCNC(=O)CCN1C(=O)CC([*:2])C1=O)NC(=O)CCN1C(=O)CC([*:1])C1=O]}$PEPTIDE1,CHEM1,21:R3-1:R1|PEPTIDE1,CHEM1,28:R3-1:R2$$$V2.0)	2.2	18.3	0.12
H-H[Aib]EGTYTNDVTEYLEEEAAKCFIEWLICGKPSSGAPPSKKKKKK-NH2 (linker 21-28 via X6)	1.9	13.6	0.14
CC[C@H](C)[C@H](NC(=O)[C@H](CC(C)C)NC(=O)[C@H](Cc1c[nH]c2ccccc12)NC(=O)[C@H](CCC(=O)O)NC(=O)[C@@H](NC(=O)[C@H](Cc1ccccc1)NC(=O)[C@@H]1CSC2CC(=O)N(CCC(=O)NC(C(=O)NCCCCCCNC(=O)COCCOCCNC(=O)CCCCCCCCCCCCCCCCC(=O)O)CCCCNC(=O)CCN3C(=O)CC(SC[C@H](NC(=O)[C@H](Cc4ccc(O)cc4)NC(=O)[C@H](CCC(=O)O)NC(=O)[C@@H](NC(=O)[C@@H](NC(=O)[C@H](CC(=O)O)NC(=O)[C@H](CC(N)=O)NC(=O)[C@@H](NC(=O)[C@H](Cc4ccc(O)cc4)NC(=O)[C@@H](NC(=O)CNC(=O)[C@H](CCC(=O)O)NC(=O)C(C)(C)NC(=O)[C@@H](N)Cc4c[nH]cn4)[C@@H](C)O)[C@@H](C)O)C(C)C)[C@@H](C)O)C(=O)N[C@@H](CCC(=O)O)C(=O)N[C@@H](CCC(=O)O)C(=O)N[C@@H](CCC(=O)O)C(=O)N[C@@H](C)C(=O)N[C@@H](C)C(=O)N[C@@H](CCCCN)C(=O)N1)C3=O)C2=O)[C@@H](C)CC)C(=O)N[C@@H](CCCCN)C(=O)NCC(=O)N[C@@H](CCCCN)C(N)=O (some centres undefined) (HELM PEPTIDE1{H.[Aib].E.G.T.Y.T.N.D.V.T.E.Y.C.E.E.E.A.A.K.C.F.I.E.W.L.I.K.G.K.[am]}|CHEM1{[O=C(O)CCCCCCCCCCCCCCCCC(=O)NCCOCCOCC(=O)NCCCCCCNC(=O)C(CCCCNC(=O)CCN1C(=O)CC([*:1])C1=O)NC(=O)CCN1C(=O)CC([*:2])C1=O]}$PEPTIDE1,CHEM1,14:R3-1:R1|PEPTIDE1,CHEM1,21:R3-1:R2$$$V2.0)	1.4	10.8	0.13
CC[C@H](C)[C@@H]1NC(=O)[C@H](CC(C)C)NC(=O)[C@H](Cc2c[nH]c3ccccc23)NC(=O)[C@H](CCC(=O)O)NC(=O)[C@H]([C@@H](C)CC)NC(=O)[C@H](Cc2ccccc2)NC(=O)[C@@H](NC(=O)[C@H](CCCCN)NC(=O)[C@H](C)NC(=O)[C@H](C)NC(=O)[C@H](CCC(=O)O)NC(=O)[C@H](CCC(=O)O)NC(=O)[C@H](CCC(=O)O)NC(=O)[C@H](CC(C)C)NC(=O)[C@H](Cc2ccc(O)cc2)NC(=O)[C@H](CCC(=O)O)NC(=O)[C@@H](NC(=O)[C@@H](NC(=O)[C@H](CC(=O)O)NC(=O)[C@H](CC(N)=O)NC(=O)[C@@H](NC(=O)[C@H](Cc2ccc(O)cc2)NC(=O)[C@@H](NC(=O)CNC(=O)[C@H](CCC(=O)O)NC(=O)C(C)(C)NC(=O)[C@@H](N)Cc2c[nH]cn2)[C@@H](C)O)[C@@H](C)O)C(C)C)[C@@H](C)O)CSC2CC(=O)N(CCC(=O)NCCCCC(C(=O)NCCCCCCNC(=O)COCCOCCNC(=O)CCC(NC(=O)CCCCCCCCCCCCCCCCC(=O)O)C(=O)O)NC(=O)CCN3C(=O)CC(SC[C@@H](C(=O)NCC(=O)N[C@@H](CCCCN)C(=O)N4CCC[C@H]4C(=O)N[C@@H](CO)C(=O)N[C@@H](CO)C(=O)NCC(=O)N[C@@H](C)C(=O)N4CCC[C@H]4C(=O)N4CCC[C@H]4C(=O)N4CCC[C@H]4C(=O)N[C@@H](CO)C(N)=O)NC1=O)C3=O)C2=O (some centres undefined) (HELM PEPTIDE1{H.[Aib].E.G.T.Y.T.N.D.V.T.E.Y.L.E.E.E.A.A.K.C.F.I.E.W.L.I.C.G.K.P.S.S.G.A.P.P.P.S.[am]}|CHEM1{[O=C(O)CCCCCCCCCCCCCCCCC(=O)NC(CCC(=O)NCCOCCOCC(=O)NCCCCCCNC(=O)C(CCCCNC(=O)CCN1C(=O)CC([*:1])C1=O)NC(=O)CCN1C(=O)CC([*:2])C1=O)C(=O)O]}$PEPTIDE1,CHEM1,21:R3-1:R1|PEPTIDE1,CHEM1,28:R3-1:R2$$$V2.0)	8.6	61.4	0.14
